Results from publication PMC12518639, “Apomorphine is a novel necroptosis inhibitor targeting mixed lineage kinase domain-like protein oligomerization” (Cell Death Discovery, 2025).
One block for each compound: values may come before it.

Tests used:
[1] = tested on: DSS-induced colitis in C57BL/6 mice; assay: DSS-induced colitis model; format: in vivo, mouse
Method: For DSS-induced colitis, male C57BL/6 mice aged 6–8 weeks (Central Lab Animal Inc., S. Korea) were administered 2.5% DSS (36–50 kDa, 9011-18-1, MP Biomedicals, Solon, OH, USA) in their drinking water for 8 days. The 2.5% DSS-supplemented drinking water was prepared by dissolving 12.5 g of DSS powder in 500 mL of distilled water and was freshly prepared and replaced daily throughout the 8 days. Body weight and DAI score were recorded daily. The DAI score was calculated based on weight loss (no weight loss, 1–5%, 5–10%, 10–15%, and >15% weight loss, respectively, representing DAI scores of 0, 1, 2, 3, and 4), stool consistency/diarrhea (normal = 0, loose stools = 2, and watery diarrhea = 4), and bleeding (no bleeding = 0, slight bleeding = 2, gross bleeding = 4). At the end of the experiment, the mice were sacrificed, and tissue samples were collected.
Each mouse colon was removed, measured in length, cut open, fixed in Bouin’s fixative (50% ethanol/5% acetic acid in distilled water), and embedded in paraffin. Tissue sections were stained with H&E (Sigma-Aldrich). Histological evaluation of the colitis lesions along the entire colon was performed using the scoring system: degree of crypt structural damage (0–3), degree of inflammatory cell infiltration (0–3), and degree of submucosal edema (0–3). For PAS staining, deparaffinized and rehydrated tissue sections were treated with 0.5% periodic acid (10450-60-9, Junsei Chemical Co., Tokyo, Japan) and stained with Schiff’s reagent (3952016, Sigma-Aldrich). Sections were dehydrated in ethyl alcohol and coverslipped.

MLKL = assay: Confocal microscopy of MLKL membrane translocation; format: cell-based, human; settings: THP-1, TBZ, 8 h
Method: THP-1 cells were washed and fixed in 4% paraformaldehyde and incubated in 0.25% Triton X-100 for 10 min, blocked for 30 min with 5% BSA-PBS, and stained with the MLKL and CD36 (ab252922, Abcam) antibody. The nuclei were stained with DAPI. Confocal microscopy (FV1000, Olympus, Tokyo, Japan) was used for image analysis. The signal intensity was measured using FluoView FV1000 software.

[2] = tested on: APAP-induced liver injury in BALB/c mice; assay: APAP-induced liver injury model; format: in vivo, mouse; settings: 15 mg/kg once, APAP i.p., 24 h; for Necrotic area of liver tissue (H&E): n=3
Method: For APAP-induced liver injury, male BALB/c mice aged 6–8 weeks (Central Lab Animal Inc., S. Korea) and male MLKL^–/– C57BL/6 mice aged 6–8 weeks (Cyagen, Santa Clara, CA, USA) were administered acetaminophen (APAP; 400–500 mg/kg, 103-90-2, Sigma-Aldrich) by i.p. injection to induce liver injury in the presence or absence of APO after 12 h of fasting. After 24 h, the mice were sacrificed to obtain liver tissues for further analysis.
For liver tissue preparation, each liver was perfused with DPBS and then fixed in 4% paraformaldehyde (PFA; PC2031-050-00, Biosesang, S. Korea) before embedding in paraffin. Sections were stained with H&E, and necrotic areas were quantified using ImageJ by calculating the proportion of pale or unstained regions relative to the total tissue area. Mouse liver sections were subjected to IHC staining to assess distinct forms of cell death: an anti-p-MLKL antibody (MA5-32752, Thermo Fisher Scientific) to evaluate p-MLKL localization (necroptosis), a TUNEL assay kit (4810-30-K, R&D Systems) for apoptosis, and an anti-4-HNE antibody (GTX01087, GeneTex) for ferroptosis.

Ct-hMLKL (183–471) = target: T1, Ct-hMLKL (183–471) (Homo sapiens, UniProt Q8NB16); assay: SPR binding to Ct-hMLKL; settings: CM5 chip
T1 construct: Nt-hMLKL (2–154), Nt-mMLKL (1–180), and Ct-hMLKL (183–471) were generated using the pBT7-N-His vector; His (N); made in house; host or cells: E. coli BL21
T1 sequence (Q8NB16 183-471): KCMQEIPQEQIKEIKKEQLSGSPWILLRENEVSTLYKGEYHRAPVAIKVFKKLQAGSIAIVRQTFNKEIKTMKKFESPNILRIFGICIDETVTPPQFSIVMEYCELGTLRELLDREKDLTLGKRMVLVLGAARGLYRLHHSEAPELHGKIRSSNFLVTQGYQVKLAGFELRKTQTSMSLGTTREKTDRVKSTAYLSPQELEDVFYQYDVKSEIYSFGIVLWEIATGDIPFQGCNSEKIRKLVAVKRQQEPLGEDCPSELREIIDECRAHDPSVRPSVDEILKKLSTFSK
Text: (§1) The hMLKL plasmid (RC213152, OriGene, Rockville, MD, USA), and recombinant Wt-hMLKL (ab241453, Abcam) and Wt-mMLKL (MBS1379843, MyBioSource, San Diego, CA, USA) proteins were purchased. Nt-hMLKL (2–154), Nt-mMLKL (1–180), and Ct-hMLKL (183–471) were generated using the pBT7-N-His vector. Nt-hMLKL^C86A, Nt-hMLKL^F148A, -hMLKL^C86A/L89A/D94A, and Nt-hMLKL^R145A/R146A/F148A/M150A were generated using the Site-directed Mutagenesis Kit (EZ004S, Enzynomics, S. Korea). These constructs were subcloned into pBT7-N-His and pET-15b plasmid vectors. E. coli BL21 cells transformed with the cloned expression vectors were cultured in LB medium and supplemented with 100 μg/mL ampicillin until an OD at 600 nm of 0.5–0.6 was reached. The cultures were induced by 1 mM IPTG (367-93-1, Sigma-Aldrich). The cells were lysed and centrifuged. The clear supernatants were subjected to Ni-NTA affinity chromatography (175018169, QIAGEN, Hilden, Germany). Plasmids encoding mMLKL (1–464)–gyrase fusion constructs were kindly provided by Prof. […]
(§2) The interactions of Wt-hMLKL, Wt-mMLKL, Nt-mMLKL, Nt, and Ct-hMLKL proteins with Re-APO or Ox-APO were detected through SPR analysis using Biacore™ T200 (Cytiva, Marlborough, MA, USA). […] Sensorgrams were recorded and analyzed in real-time using the control software in the BIAcore T200 system. All data were analyzed using the BIA evaluation software (Cytiva).

Wt-mMLKL = target: T2, Wt-mMLKL (Mus musculus, UniProt Q9D2Y4); assay: SPR binding to Wt-mMLKL; settings: CM5 chip, 25 °C
T2 construct: purchased MyBioSource MBS1379843
T2 sequence (Q9D2Y4 whole entry): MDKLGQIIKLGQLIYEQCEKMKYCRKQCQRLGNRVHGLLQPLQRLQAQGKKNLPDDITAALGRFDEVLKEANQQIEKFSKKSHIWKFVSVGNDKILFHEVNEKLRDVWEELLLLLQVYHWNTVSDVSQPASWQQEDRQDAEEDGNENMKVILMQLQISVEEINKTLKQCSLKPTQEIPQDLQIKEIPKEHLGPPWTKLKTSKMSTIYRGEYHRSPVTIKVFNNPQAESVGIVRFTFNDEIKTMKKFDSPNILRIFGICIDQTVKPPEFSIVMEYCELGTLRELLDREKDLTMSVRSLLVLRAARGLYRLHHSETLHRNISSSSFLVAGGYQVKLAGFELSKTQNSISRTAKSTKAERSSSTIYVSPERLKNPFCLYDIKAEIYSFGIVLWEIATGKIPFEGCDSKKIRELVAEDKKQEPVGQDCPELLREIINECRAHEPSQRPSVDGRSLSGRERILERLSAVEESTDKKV
Text: as §1, §2

[3] = 15 mg/kg i.p. daily, 2.5% DSS 8 days

Structure (SMILES): CN1CCc2cccc3c2[C@@H]1Cc1ccc(O)c(O)c1-3 [S62, (6aS)-6-methyl-5,6,6a,7-tetrahydro-4H-dibenzo[de,g]quinoline-10,11-diol]
- colitis symptoms and pathological changes (H&E, PAS) ([1]; 0.15, 1.5 or 15 mg/kg i.p. daily, oxidative state not determined): significantly alleviated
- level of MLKL in the cell membrane (MLKL): profoundly decreased

- binding in SPR (Ct-hMLKL (183–471)): no detectable binding
- Kd (Wt-mMLKL): 0.0229 µM
Structure (SMILES): CN1CCc2cccc3c2C1Cc1ccc(O)c(O)c1-3 (stereo not drawn) [Re-APO]
- Serum ALT and AST levels [2]: significantly improved
- membrane p-MLKL in liver (IHC) [2]: dramatic decrease
- Necrotic area of liver tissue (H&E) [2]: 3%
- average histologic score [1, 3]: 2.6
- alleviation of DSS-induced colitis symptoms relative to Ox-APO ([1]; at the same concentration): about ten times weaker than Ox-APO

Structure (SMILES): CN1CCc2cccc3c4c(cc1c23)C=CC(=O)C4=O [Ox-APO]
- Serum ALT and AST levels [2]: significantly improved
- membrane p-MLKL in liver (IHC) [2]: dramatic decrease
- Necrotic area of liver tissue (H&E) [2]: 1%
- binding in SPR (Ct-hMLKL (183–471)): no detectable binding
- average histologic score ([1]; 1.5 mg/kg i.p. daily, 2.5% DSS 8 days): 3.0
- average histologic score [1, 3]: 1.2
- DAI score and colon length ([1]; i.p. daily, 2.5% DSS 8 days): more effective than Re-APO
- inhibition of migration of p-MLKL to the cell membrane (MLKL; same concentration): more effective than Re-APO
- Kd (Wt-mMLKL): 0.000381 µM
